Assay results as given in ChEMBL document CHEMBL1135811, “4-(Phenylsulfonyl)piperidines: novel, selective, and bioavailable 5-HT(2A) receptor antagonists” (J Med Chem, 2002).

Key:
Format in all cases: ADME, organism-based
[1] = Bioavailability; settings: eutheria, in vivo
[2] = Maximum blood concentration after oral dose 1 mg/kg; set-up: dose 1 mg/kg, route oral
[3] = Mean residence time following intravenous dosing; settings: in vivo
[4] = Area under concentration-time curve for 0-4 hr after oral dose 1 mg/kg; set-up: time < 4 hr, dose 1 mg/kg, route oral; settings: in vivo
[5] = (§1) Area under concentration-time curve for 0-4 hr after oral dose of […]; set-up: time < 4 hr, dose 1.2 mg/kg, route oral; settings: in vivo
[6] = (§2) Maximum blood concentration after oral dose of […]; set-up: dose 1.2 mg/kg, route oral
[7] = as §1; set-up: time < 4 hr, dose 1.5 mg/kg, route oral; settings: in vivo
[8] = as §2; set-up: dose 1.5 mg/kg, route oral
[9] = Maximum blood concentration after oral dose of 10 mg/kg; set-up: dose 10 mg/kg, route oral
[10] = Area under concentration-time curve for 0-4 hr after oral dose of 10 mg/kg; set-up: time < 4 hr, dose 10 mg/kg, route oral; settings: in vivo
[11] = Area under concentration-time curve for 0-4 hr after oral dose of 2.0 mg/kg; set-up: time < 4 hr, dose 2 mg/kg, route oral; settings: in vivo
[12] = Maximum blood concentration after oral dose of 2.0 mg/kg; set-up: dose 2 mg/kg, route oral

| SMILES | bioavailability [1] [%] | Cmax [2] [ng/mL] | MRT [3] [h] | AUC(0-t) at 4 h [4] [ng·h/mL] | further results |
| --- | --- | --- | --- | --- | --- |
| N#Cc1ccc(S(=O)(=O)C2CCN(CCc3ccc(F)cc3F)CC2)cc1 | 23 | 30 | 2.3 | 177 | – |
| COc1cccc([C@H](O)C2CCN(CCc3ccc(F)cc3)CC2)c1OC [VOLINANSERIN] | 3 | – | 1 | – | AUC(0-t) at 4 h [5]: 8 ng·h/mL; Cmax [6]: 2 ng/mL |
| O=C(CN1CCC(S(=O)(=O)c2ccccc2)CC1)c1ccc(F)cc1 | 30 | 140 | 0.7 | 171 | – |
| COc1ccc2c(c1)CCC1(CCN(CCc3ccc(F)cc3F)CC1)O2 | – | – | 1.5 | – | AUC(0-t) at 4 h [7]: 4 ng·h/mL; Cmax [8]: 2 ng/mL |
| NC(=O)c1cccc(S(=O)(=O)C2CCN(CCc3ccc(F)cc3F)CC2)c1 | 24 | 38 | 1.1 | 115 | – |
| O=S(=O)(c1ccccc1)C1CCN(CCc2ccc(F)cc2F)CC1 | 2 | – | 1 | – | Cmax [9]: 23 ng/mL; AUC(0-t) at 4 h [10]: 100 ng·h/mL |
| OC1c2ccccc2CCC12CCN(CCc1ccccc1)CC2 (stereo unspecified) | – | – | – | – | AUC(0-t) at 4 h [11]: 3 ng·h/mL; Cmax [12]: 2 ng/mL |
| NC(=O)c1ccc(S(=O)(=O)C2CCN(CCc3ccc(F)cc3F)CC2)cc1 | 22 | 70 | 0.9 | 199 | – |
| O=S1(=O)c2ccccc2CCC12CCN(CCc1ccc(F)cc1F)CC2 | – | – | – | – | AUC(0-t) at 4 h [11]: 1 ng·h/mL; Cmax [12]: 1 ng/mL |
